This note sets out measurements from US10040802B2, “Thienopyrazine inhibitors of IRAK4 activity” (MERCK SHARP & DOHME CORP., priority 2015, dated 2018).

For orientation: IC50 means the concentration that inhibits the measured activity by half. A higher IC50 goes with weaker potency in that assay.

Structures can show the parent of a compound that is named as a salt.

GST tagged IRAK4, sequence (Q9NWZ3 whole entry): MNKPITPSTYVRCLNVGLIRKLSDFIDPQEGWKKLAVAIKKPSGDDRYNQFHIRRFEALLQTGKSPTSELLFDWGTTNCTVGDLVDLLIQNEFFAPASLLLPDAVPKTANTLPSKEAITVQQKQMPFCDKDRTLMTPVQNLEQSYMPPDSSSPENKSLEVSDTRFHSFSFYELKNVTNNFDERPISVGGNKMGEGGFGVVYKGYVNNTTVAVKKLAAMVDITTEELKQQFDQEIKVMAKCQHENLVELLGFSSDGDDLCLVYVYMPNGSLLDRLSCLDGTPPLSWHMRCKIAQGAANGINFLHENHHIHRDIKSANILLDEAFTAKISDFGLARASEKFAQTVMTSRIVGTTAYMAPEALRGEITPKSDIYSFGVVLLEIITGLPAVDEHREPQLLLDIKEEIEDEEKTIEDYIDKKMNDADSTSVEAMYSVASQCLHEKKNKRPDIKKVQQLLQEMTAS

For this assay, the target named is GST tagged IRAK4 (Homo sapiens (Human), UniProt Q9NWZ3). Briefly: IRAK4 Kinase Assay (IMAP fluorescence polarization). The conditions noted are these: 0.5 nM GST tagged IRAK4, 100 μM ATP, 30 minutes at 25° C. Format: biochemical. In outline:
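GST-tagged IRAK4 (0.5 nM) phosphorylates 100 nM fluorescent peptide with 100 μM ATP in 10 mM Tris pH 7.2, 1 mM MgCl2, 1 mM DTT, 0.01% Tween 20 for 30 min at 25 °C. Phosphorylation read as IMAP nanoparticle-binding fluorescence polarization after stop reagent.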
As for `N[C@@H]1[C@H](Nc2cnc3scc(C(=O)Nc4ccccc4Cl)c3n2)CCCC1(F)F` [Example 101, 2-{[(1R,2R)-2-amino-3,3-difluorocyclohexyl]-amino}-N-(2-chlorophenyl)-thieno[2,3-b]-pyrazine-7-carboxamide trifluoroacetate], half-maximal inhibition (IC50) required 545 nM.
In the case of `N[C@H]1CCCC[C@H]1Nc1cnc2scc(C(=O)Nc3ccccc3C(F)F)c2n1` [Example 102, 2-{[(1R,2S)-2-aminocyclohexyl]-amino}-N-[2-(difluoromethyl)phenyl]thieno-[2,3-b]-pyrazine-7-carboxamide trifluoroacetate] it was 25 nM; in that of `O=C(Nc1ccccc1C(F)F)c1csc2ncc(N3CCCNCC3)nc12` [Example 103, 2-(1,4-diazepan-1-yl)-N-[2-(difluoromethyl)phenyl]thieno[2,3-b]pyrazine-7-carboxamide trifluoroacetate], 3630 nM; in that of `N#Cc1ccccc1NC(=O)c1csc2ncc(N[C@@H]3CCCC(F)(F)[C@@H]3N)nc12` [Example 105, 2-{[(1R,2R)-2-amino-3,3-difluorocyclohexyl]-amino}-N-(2-cyanophenyl)-thieno[2,3-b]-pyrazine-7-carboxamide trifluoroacetate], 146 nM.
In the case of `N[C@@H]1[C@H](Nc2cnc3scc(C(=O)Nc4ccccc4C(F)F)c3n2)CCCC1(F)F` [Example 106, 2-{[(1R,2R)-2-amino-3,3-difluorocyclohexyl]-amino}-N-[2-(difluoromethyl)phenyl]thieno[2,3-b]pyrazine-7-carboxamide trifluoroacetate] it was 2580 nM; in that of `O=C(Nc1cscc1Cl)c1csc2ncc(N3CCCNCC3)nc12` [Example 107, N-(4-chlorothiophen-3-yl)-2-(1,4-diazepan-1-yl)-thieno[2,3-b]-pyrazine-7-carboxamide trifluoroacetate], 151 nM; in that of `N[C@H]1CCCC[C@H]1Nc1cnc2scc(C(=O)Nc3cscc3Cl)c2n1` [Example 110, 2-{[(1R,2S)-2-aminocyclohexyl]-amino}-N-(4-chlorothiophen-3-yl)thieno[2,3-b]-pyrazine-7-carboxamide trifluoroacetate], 0.7 nM.
The same measure for `N[C@@H]1[C@H](Nc2cnc3scc(C(=O)Nc4cscc4Cl)c3n2)CCCC1(F)F` [Example 111, 2-{[(1R,2R)-2-amino-3,3-difluorocyclohexyl]-amino}-N-(4-chlorothiophen-3-yl)thieno[2,3-b]-pyrazine-7-carboxamide trifluoroacetate]: 645 nM.
